Assay results from patent US20220000976A1 (priority 2018, published 2022).
Counter-ions that a name gives are not always drawn.

How the values were obtained:
ROR-γt+ Treg cells = conditions: mouse, in vivo
Il4ra^F709 mice = assay: Food allergy model: OVA/SEB oral sensitization and OVA challenge of treated Il4ra^F709 mice (core body temperature); format: in vivo, mouse; conditions: 100 mg/kg i.p. once weekly, OVA/SEB 8 weeks

Row | Structure (SMILES) | ROR-γt+ staining in CD4+Foxp3+ Treg cells vs sham treatment (ROR-γt+ Treg cells) | GATA3+ Helios+ gut Treg cells (ROR-γt+ Treg cells; ip, 100 mg/kg) | GATA3+ Helios− gut Treg cells (ROR-γt+ Treg cells; ip, 100 mg/kg) | GATA3+ gut Treg cells (ROR-γt+ Treg cells; ip, 100 mg/kg) | Gut ROR-γt+ Treg cells (expansion) (ROR-γt+ Treg cells; ip, 100 mg/kg) | ROR-γt+ Helios+ gut Treg cells (ROR-γt+ Treg cells; ip, 100 mg/kg) | ROR-γt+ Helios− gut Treg cells (ROR-γt+ Treg cells; ip, 100 mg/kg) | ROR-γt+ gut Treg cells (ROR-γt+ Treg cells; ip, 100 mg/kg) | Protection against food allergy (Il4ra^F709 mice; OVA challenge) | Core body temperature changes compared to control (Il4ra^F709 mice; after OVA challenge)
1 | O=Cc1c[nH]c2ccccc12 [CA, indol-3-carboxaldehyde] | statistically significant increase | – | – | – | – | – | – | – | – | –
2 | O=S(=O)(O)Oc1c[nH]c2ccccc12 [I3S, Indoxyl sulfate] | – | statistically significant decrease | statistically significant decrease | statistically significant decrease | expanded gut ROR-γt^+ Treg cells | statistically significant increase | statistically significant increase | statistically significant increase | protected against food allergy | statistically significant increase
